# Measurements taken from US20160115540A1, “PRODRUGS AND DRUGS” (Biogen MA Inc., priority 2013, published 2016).
# Counter-ions that a name gives are not always drawn.
# Tested on: kidney
# Assay: Transcriptional profiling on Affymetrix GeneChips, single dose, naïve mice: kidney
# Type: in vivo, C57BL/6 mice
# Details: for FC: 100DMF-vs-Veh, fold change of the probe set/gene named in the row (Affymetrix, naïve single dose); for Number of differentially expressed genes identified: Kidney: Naïve, Single Dose
# Method: Treated mice were sacrificed at 2, 7, or 12 hours. Tissues (liver, spleen, kidney, jejunum, cortex, hippocampus, striatum and whole blood) were collected and analyzed by transcriptional profiling on mouse Affymetrix GeneChips.
# Tissues (liver, spleen, kidney, jejunum, cortex, hippocampus, striatum and whole blood) were collected and analyzed by transcriptional profiling on mouse Affymetrix GeneChips.
# Animals were exposed to CO2 and whole blood collected via cardiac puncture. Two 100 μl aliquots of whole blood were collected in 1.5 mL microcentrifuge tubes and snap frozen in liquid nitrogen. Peripheral (liver, spleen, kidney and jejunum) and CNS brain (cerebellum, hippocampus, striatum and cortex) tissues were harvested and snap frozen in liquid nitrogen, with special care taken to collect tissues of similar size and from the same location. All samples were stored at −80° C. until RNA extraction was conducted.
# For RNA preparation, frozen tissues were placed in 2 mL RNAse-free 96-well blocks with 1.5 mL QIAzol Lysis Reagent (QIAgen) and a 3.2 mm stainless steel bead (BioSpec Products, Bartlesville, Okla.). Tissues were disrupted for four cycles of 45 seconds in a Mini-Beadbeater (Biospec Products). RNA was extracted in chloroform and the aqueous phase was mixed with an equal volume of 70% ethanol. Extracted RNA was applied to RNeasy 96 plates and purified by the spin method according to the manufacturer's protocol (RNeasy 96 Universal Tissue Protocol, QIAgen, Hilden Germany).
# Automated sample amplifications and biotin labelings were carried out using the NuGEN Ovation RNA Amplification system V2 (Cat #3100), Ovation WB reagent (Cat #1300) and Encore Biotin module (Cat #4200) (NuGEN Technologies, Inc, San Carlos, Calif.) according to manufacturer's recommendations using an Arrayplex automated liquid handler (Beckman Coulter, Indianapolis, Ind.). Two micrograms of biotin labeled sscDNA probe were hybridized to Affymetrix GeneChip Affymetrix HT_MG-430_PM plate arrays with modified conditions as described in Allaire et al. Washing and staining of the hybridized arrays were completed as described in the GeneChip Expression analysis technical manual for HT plate arrays using the Genechip® Array Station (Affymetrix, Santa Clara, Calif.) with modifications as described in Allaire et al. The processed GeneChip® plate arrays were scanned using GeneTitan scanner (Affymetrix, Santa Clara, Calif.).
# Affymetrix scans were subject to quality control (QC) measures. These tests included a visual inspection of the distribution of raw signal intensities and an assessment of RNA degradation, relative log expression (RLE), and normalized unsealed standard error (NUSE). All sample scans that passed these QC metrics were included in the analysis.
# All CEL files were subjected to GC-content-based Robust Multi-array Average (GCRMA) normalization (version 2.20.0) (Irizarry R A, et al. Nucleic Acids Res 2003; 31:e15; Li C, et al. Genome Biol 2001; 2:[…]0032). Expression levels were log (base 2) transformed.
# All calculations and analyses were carried out using R (version 2.11.1) and Bioconductor computational tools (Gentleman R. Springer Science+Business Media 2005).
structure (smiles),measurement,setting,value
"COC(=O)/C=C/C(=O)OC [DMF, dimethyl fumarate]",FC Tmem88b 1436974_PM_at,"100 DMF-vs-Veh, 2 h",−2.24
same,FC Tnfaip3 1433699_PM_at,"100 DMF-vs-Veh, 2 h",−1.83
same,FC Tnfsf10 1439680_PM_at,"100 DMF-vs-Veh, 2 h",−1.52
same,FC Trim7 1439352_PM_at,"100 DMF-vs-Veh, 2 h",−1.54
same,FC Txnrd1 1421529_PM_a_at,"100 DMF-vs-Veh, 2 h",1.53
same,FC Txnrd1 (1424487_PM_x_at),"100 DMF-vs-Veh, 2 h",1.99
same,FC Ubiad1 1424213_PM_at,"100 DMF-vs-Veh, 2 h",−1.61
same,FC Ubxn7 1435912_PM_at,"100 DMF-vs-Veh, 2 h",1.51
same,FC Vps37b 1424380_PM_at,"100 DMF-vs-Veh, 2 h",1.56
same,FC Zbtb2 1434901_PM_at,"100 DMF-vs-Veh, 2 h",2.52
same,FC Zfp30 1449813_PM_at,"100 DMF-vs-Veh, 2 h",−1.55
same,FC Zfp39 1441198_PM_at,"100 DMF-vs-Veh, 2 h",−1.64
same,FC Zfp93 1418955_PM_at,"100 DMF-vs-Veh, 2 h",−1.74
same,FC Zfp189 1425287_PM_at,"100 DMF-vs-Veh, 2 h",1.51
same,FC Zfp295 1425305_PM_at,"100 DMF-vs-Veh, 2 h",2.68
same,FC Zfp295 1441973_PM_at,"100 DMF-vs-Veh, 2 h",2.08
same,FC Zfp759 1452623_PM_at,"100 DMF-vs-Veh, 2 h",−1.65
same,FC Zswim6 1434967_PM_at,"100 DMF-vs-Veh, 2 h",1.63
same,FC,7 h,−1.82
same,FC,12 h,1.82
same,FC Adm (1416077_PM_at),"KIDNEY, 100 DMF-vs-Veh, 2 h",1.56
same,FC Bhlhe40 (1418025_PM_at),"KIDNEY, 100 DMF-vs-Veh, 2 h",1.59
same,FC Cyr61 (1416039_PM_x_at),"KIDNEY, 100 DMF-vs-Veh, 2 h",2.43
same,FC Dbf4 (1418334_PM_at),"KIDNEY, 100 DMF-vs-Veh, 2 h",2.08
same,FC Ddit3 (1417516_PM_at),"KIDNEY, 100 DMF-vs-Veh, 2 h",3.97
same,FC Dnaja1 (1416288_PM_at),"KIDNEY, 100 DMF-vs-Veh, 2 h",1.69
same,FC Dnaja4 (1418591_PM_at),"KIDNEY, 100 DMF-vs-Veh, 2 h",2.05
same,FC Dnaja4 (1418592_PM_at),"KIDNEY, 100 DMF-vs-Veh, 2 h",1.87
same,FC Dnajb1 (1416755_PM_at),"KIDNEY, 100 DMF-vs-Veh, 2 h",3.03
same,FC Dnajb1 (1416756_PM_at),"KIDNEY, 100 DMF-vs-Veh, 2 h",4.36
same,FC Dusp6 (1415834_PM_at),"KIDNEY, 100 DMF-vs-Veh, 2 h",1.52
same,FC Dusp16 (1418401_PM_a_at),"KIDNEY, 100 DMF-vs-Veh, 2 h",1.50
same,FC Egr1 (1417065_PM_at),"KIDNEY, 100 DMF-vs-Veh, 2 h",4.60
same,FC Gclm 1418627_PM_at,"KIDNEY, 100 DMF-vs-Veh, 2 h",1.51
same,FC Hbegf (1418349_PM_at),"KIDNEY, 100 DMF-vs-Veh, 2 h",2.03
same,FC Hbegf (1418350_PM_at),"KIDNEY, 100 DMF-vs-Veh, 2 h",2.21
same,FC Ier2 (1416442_PM_at),"KIDNEY, 100 DMF-vs-Veh, 2 h",1.75
same,FC Ifrd1 (1416067_PM_at),"KIDNEY, 100 DMF-vs-Veh, 2 h",1.52
same,FC Igfbp1 (1418918_PM_at),"KIDNEY, 100 DMF-vs-Veh, 2 h",−2.89
same,FC Nab2 (1417930_PM_at),"KIDNEY, 100 DMF-vs-Veh, 2 h",2.74
same,FC Nasp (1416042_PM_s_at),"KIDNEY, 100 DMF-vs-Veh, 2 h",1.62
same,FC Nfil3 (1418932_PM_at),"KIDNEY, 100 DMF-vs-Veh, 2 h",2.29
same,FC Pmaip1 (1418203_PM_at),"KIDNEY, 100 DMF-vs-Veh, 2 h",1.68
same,FC Ppp2r3c (1417479_PM_at),"KIDNEY, 100 DMF-vs-Veh, 2 h",1.59
same,FC Rcan1 (1416600_PM_a_at),"KIDNEY, 100 DMF-vs-Veh, 2 h",1.51
same,FC Sertad1 (1417406_PM_at),"KIDNEY, 100 DMF-vs-Veh, 2 h",2.06
same,FC Sirt1 (1418640_PM_at),"KIDNEY, 100 DMF-vs-Veh, 2 h",1.68
same,FC Slc22a4 (1417639_PM_at),"KIDNEY, 100 DMF-vs-Veh, 2 h",−1.51
same,FC Tnfrsf12a 1418571_PM_at,"KIDNEY, 100 DMF-vs-Veh, 2 h",2.37
same,FC Tnfrsf12a 1418572_PM_x_at,"KIDNEY, 100 DMF-vs-Veh, 2 h",2.33
same,FC Tnnc1 (1418370_PM_at),"KIDNEY, 100 DMF-vs-Veh, 2 h",1.89
same,FC Txnip (1415997_PM_at),"KIDNEY, 100 DMF-vs-Veh, 2 h",−1.73
same,FC Zfand2a (1415940_PM_at),"KIDNEY, 100 DMF-vs-Veh, 2 h",1.55
same,FC Zfand5 (1416084_PM_at),"KIDNEY, 100 DMF-vs-Veh, 2 h",1.63
same,FC Zfand5 (1416085_PM_s_at),"KIDNEY, 100 DMF-vs-Veh, 2 h",1.68
same,"Number of genes, DMF Only / MMF Only",Kidney,61
same,Asns (1451095_PM_at) differential expression,"Kidney, 2 hr",3.03
same,Cbr3 (1427912_PM_at) differential expression,"Kidney, 2 hr",3.04
same,Gdf15 (1418949_PM_at) differential expression,"Kidney, 2 hr",5.39
same,Mthfd2 (1419253_PM_at) differential expression,"Kidney, 2 hr",2.06
same,Number of differentially expressed genes identified: Kidney,"100 mpk DMF-vs-100 mpk MMF, 2 h after last dosing",1
same,Number of differentially expressed genes identified: Kidney,"100 mpk DMF-vs-100 mpk MMF, 7 h after last dosing",1
same,Number of differentially expressed genes identified: Kidney,"100 mpk DMF-vs-100 mpk MMF, 12 h after last dosing",2
same,Number of differentially expressed genes identified: Kidney,"100 mpk, vs Vehicle, 2 h after last dosing",331
same,Number of differentially expressed genes identified: Kidney,"100 mpk, vs Vehicle, 7 h after last dosing",93
same,Number of differentially expressed genes identified: Kidney,"100 mpk, vs Vehicle, 12 h after last dosing",100
same,Asns (1451095_PM_at) differential expression,"kidney, 7 hr",1.92
same,Cbr3 (1427912_PM_at) differential expression,"kidney, 7 hr",5.88
same,Gdf15 (1418949_PM_at) differential expression,"kidney, 7 hr",1.75
same,Mthfd2 (1419253_PM_at) differential expression,"kidney, 7 hr",1.65
same,Asns (1451095_PM_at) differential expression,"kidney, 12 hr",2.65
same,Cbr3 (1427912_PM_at) differential expression,"kidney, 12 hr",5.67
same,Gdf15 (1418949_PM_at) differential expression,"kidney, 12 hr",1.77
same,Mthfd2 (1419253_PM_at) differential expression,"kidney, 12 hr",1.60
same,FC 1439640_PM_at (no gene symbol),"kidney, 100DMF-vs-100MMF, 2 h",1.54
same,FC Nr1d1 (1426464_PM_at),"kidney, 100DMF-vs-100MMF, 7 h",1.56
same,FC 1441333_PM_at (no gene symbol),"kidney, 100DMF-vs-100MMF, 12 h",1.91
same,FC C76628 (1420187_PM_at),"kidney, 100DMF-vs-100MMF, 12 h",1.59
